# Assay results as given in US10314885B2, “Oxytocin treatment to modify blood glucose and treat metabolic disease” (The Regents of the University of California, priority 2010, dated 2019).
# Marks after values point to notes of the source that are not given here.
# What was measured:
# Type in all cases: in vivo, human
# [1] = system: Subjects with a DSM-IV diagnosis of schizophrenia; experiment: California Verbal Learning Test (CVLT-II)
# Source text: (§1) Participants. Subjects with a DSM-IV diagnosis of schizophrenia, confirmed by SCID interview, were enrolled in a double-blind, placebo-controlled, crossover study. Other main inclusion criteria were: minimum 18 years of age, treatment with 1 or 2 approved antipsychotic medication with no dose changes in the previous four weeks, a minimum Positive and Negative Syndrome Scale (PANSS) score of at least 55 with a minimum score of 4 and a Clinical Global Impressions-Severity (CGI-S) scale score of at least 4 (moderately ill) at randomization.
# Study Drugs. Subjects were maintained on a stable dose of their pre-study antipsychotic medication regimen. In addition to their antipsychotics, subjects received 3-weeks of daily intranasal oxytocin (Syntocinin, Novartis, Basel Switzerland) dosed 20 IU twice a day for the first week and then 40 IU twice a day for weeks two and three, and 3-weeks of daily intranasal placebo. Order of treatment (placebo-oxytocin or oxytocin-placebo) was randomly assigned using a computer generated random sequence.
# Safety and efficacy assessments. Subjects, raters, and study staff enrolling patients were blinded to treatment condition. The total study duration for each individual subject was 7 weeks, which included a baseline visit (V1), a three-week initial treatment period, a 1 week washout (between V4 and V5), a repeat baseline visit, and a three-week crossover treatment period. Subjects received the cognitive tests a total of 3 times: at baseline visits (V1, and after 3 weeks of treatment with placebo and oxytocin (V4, V7).
# The CVLT-II is a commonly-used test of new learning and declarative verbal memory, which closely resembles the HVLT (Hopkins Verbal Learning Test), a part of the standardized MATRICS cognitive battery, now used to measure cognitive changes in Schizophrenia clinical trials. In the CVLT-II, lists of 16 words (List A) from various semantic categories are read over 5 trials. After each trial, subject is asked to recall as many words as they can (free recall). An interference list (List B) is then presented. Free and cued recall of List A is measured immediately following (short delay) and 20 minutes (long delay). At the end of the test, a 44 word recognition task is performed with subjects identifying target words among 28 distractors. The CVLT's format allows assessment of multiple aspects of cognition: overall recall ability, rate of learning over sequential trials, ability to retain learned material, and item recognition.
# For each subtest a two-factor repeated ANOVA with drug treatment (placebo/oxytocin) and order of treatment as factors was conducted.
# [2] = system: Subjects with a DSM-IV diagnosis of schizophrenia; experiment: PANSS and CGI efficacy assessment, double-blind placebo-controlled crossover study of adjunctive intranasal oxytocin; conditions: for CGI-Severity score: Baseline of oxytocin arm (CGI-Severity, not CGI-Improvement); for CGI-I Cohen's d / PANSS Negative Cohen's d / PANSS Total Cohen's d: Week 3, oxytocin vs placebo; for PANSS Total Cohen's d: 0.2 small, 0.5 medium, 0.8 large
# Source text: as §1, with “in this” for “in a”, “weeks,” for “weeks, a minimum”, “55” for “55 with a minimum score of 4”, “randomization. Because it was hypothesized that oxytocin may improve paranoia due to its pro-trust effect, subjects were also required to have a score of at least 4 (moderate) on item 6 (suspiciousness/persecution) of the PANSS. This study was approved by the UCSD IRB and written informed consent was obtained from all subjects.” for “randomization.”
# (§2) Study Drugs. Subjects were maintained on their pre-study antipsychotic medication regimen and doses were not changed during the study. Subjects received 3-weeks of daily intranasal oxytocin (Syntocinin, Novartis, Basel Switzerland) and 3-weeks of daily intranasal placebo. Oxytocin was dosed at 20 IU (5 sprays) twice a day for the first week and 40 IU (10 sprays) twice a day thereafter. Order of treatment (placebo-oxytocin or oxytocin-placebo) was randomly assigned using a computer generated random sequence.
# Efficacy and Safety assessments. Subjects, raters and study staff enrolling patients were blinded to treatment condition. The total study duration for each individual subject was 7 weeks. Subjects were evaluated […]. Visit 1 and 5 were baseline assessments and visits 2, 3, 4 and 6, 7, 8 were the weekly visits for the two treatment periods, respectively. Washout occurred in the week between visit 4 and 5. At each visit raters assessed subjects utilizing the PANSS, CGI-S and CGI-Improvement (CGI-I). PANSS-total at the final visit of each treatment period was chosen a′ priori as the primary efficacy endpoint.
# (§3) Safety was assessed at each visit by a medical exam, and assessments of reported adverse events. In addition, urine was collected for osmolality testing and blood was drawn at each visit and analyzed at UCSD laboratories for basic chemistry analysis. Statistical Methods. Data from all subjects who received at least one dose and one assessment in both treatment periods (intent-to-treat population) were subjected to analysisusing SPSS version 11.0. Baseline scores for both drug treatments were compared for similarity using paired t-test. The change in baseline scores from period 1 to period 2 was compared among the placebo-oxytocin versus oxytocin-placebo group using a two-sample t-test to assess for period carry-over effects. PANNS and CGI data were subjected to repeated measures ANOVA with drug and treatment-week as repeated measures factors. Treatment sequence was included as a between-subjects factor to evaluate possible period and carry-over effects. Paired t-tests, corrected for multiple-comparisons using Bonferoni method were used to compare placebo and oxytocin scores at endpoint and each the other assessment visits. Cohen's d statistic was calculated for each measure at endpoint.
# [3] = system: Subjects with a DSM-IV diagnosis of schizophrenia; experiment: Reported adverse events in the crossover study
# Description: as §2, §3
# [4] = system: Subjects with a DSM-IV diagnosis of schizophrenia; experiment: Letter Number Sequencing subtest (LNS) of WAIS-III; conditions: after 3 weeks of intranasal oxytocin
# Source text: as §1
# Study Drugs. Subjects were maintained on a stable dose of their pre-study antipsychotic medication regimen. In addition to their antipsychotics, subjects received 3-weeks of daily intranasal oxytocin (Syntocinin, Novartis, Basel Switzerland) dosed 20 IU twice a day for the first week and then 40 IU twice a day for weeks two and three, and 3-weeks of daily intranasal placebo. […]
# The Letter Number Sequencing subtest (LNS) is a component of the larger WAIS-III and is used to measure attention and working memory. […] In each trial of the LNS, a list of letters and numbers are read in a mixed order to participants; participants are asked to recall first the digits and then the letters in the order they were presented. […] Scores are calculated by totaling the correct responses for each length. […]
# [5] = Blood chemistry analysis and urine osmolality at endpoint
# Description: as §2, §3
# [6] = after 3 weeks of intranasal oxytocin, Mean (S.E.M.)
# [7] = Baseline of oxytocin arm, mean (SD)
# [8] = Week 1, intranasal 20 IU twice a day, mean (SD)
# [9] = Week 2, intranasal 40 IU twice a day, mean (SD)
# [10] = Week 3, intranasal 40 IU twice a day, mean (SD)
# [11] = 3 weeks intranasal oxytocin, 15 completers
smiles,measurement,setting,value
"CC[C@H](C)[C@@H]1NC(=O)[C@H](Cc2ccc(O)cc2)NC(=O)[C@@H](N)CSSC[C@@H](C(=O)N2CCC[C@H]2C(=O)N[C@@H](CC(C)C)C(=O)NCC(N)=O)NC(=O)[C@H](CC(N)=O)NC(=O)[C@H](CCC(N)=O)NC1=O [Oxytocin, Cys-Tyr-Ile-Gln-Asn-Cys-Pro-Leu-Gly]",CVLT Long Delay Cued Recall Raw,[1]; [6],11.87 (0.97)
same,CVLT Long Delay Free Recall Raw,[1]; [6],10.87 (0.87)
same,CVLT Short Delay Cued Recall Raw,[1]; [6],12.00 (0.79)
same,CVLT Short Delay Free Recall Raw,[1]; [6],10.60 (1.03)
same,CVLT Total Intrusions Raw,[1]; [6],4.93 (1.90)
same,CVLT Total Recall Discriminability Raw,[1]; [6],2.22 (0.19)
same,CVLT Total Recognition Discriminability Raw,[1]; [6],2.97 (0.28)
same,CVLT Total Repetitions Raw,[1]; [6],13.67 (5.44)
same,CVLT Trials 1-5 Raw,[1]; [6],55.67 (3.65)
same,"CVLT subscale scores, oxytocin versus placebo","[1]; all 9 subscales, after 3 weeks",scored higher
same,reduction on the PANSS-total,[2]; 3 weeks of treatment vs baseline (placebo 3.0 points),7.9 point
same,CGI-Severity score,[2]; mean (SD),4.67 (0.61)^
same,CGI-Severity score,"[2]; mean (SD), listed as oxytocin",4.67±0.74
same,PANSS Gen. Psy. score,[2]; [7],38.8 (7.6)
same,PANSS Negative score,[2]; [7],20.2 (4.7)
same,PANSS Positive score,[2]; [7],21.7 (4.1)
same,PANSS Total score,"[2]; Baseline of oxytocin arm, mean (standard deviation)",81.5 (12.4)
same,PANSS Total score,"[2]; Baseline of oxytocin arm, mean (standard deviation), listed as oxytocin",81.4±12.43
same,PANSS Total score,"[2]; Week 1, intranasal 20 IU twice a day, adjunctive to antipsychotics, mean (SD)",76.3 (11.3)
same,CGI-I score,[2]; [8],3.33 (0.62)
same,PANSS Gen. Psy. score,[2]; [8],36.4 (8.1)
same,PANSS Negative score,[2]; [8],20.1 (4.8)
same,PANSS Positive score,[2]; [8],20.6 (4.5)
same,PANSS Total score,"[2]; Week 2, intranasal 40 IU twice a day, adjunctive to antipsychotics, mean (SD)",76.9 (13.2)
same,CGI-I score,[2]; [9],3.33 (1.20)
same,PANSS Gen. Psy. score,[2]; [9],36.3 (8.2)
same,PANSS Negative score,[2]; [9],19.7 (4.3)
same,PANSS Positive score,[2]; [9],20.5 (4.6)
same,PANSS Total score,"[2]; Week 3 (endpoint), intranasal 40 IU twice a day, adjunctive to antipsychotics, mean (SD)",73.6 (13.6)**
same,CGI-I Cohen's d,[2],[0.74]
same,PANSS Negative Cohen's d,[2],[0.50]
same,PANSS Total Cohen's d,[2],[0.43]
same,PANSS Total Cohen's d,[2]; listed as oxytocin,0.43
same,CGI-I Cohen's d,[2]; listed as oxytocin,0.74
same,PANSS Negative Cohen's d,[2]; listed as oxytocin,0.50
same,CGI-I score,[2]; [10],3.07 (0.70)**
same,PANSS Gen. Psy. score,[2]; [10],34.8 (6.9)
same,PANSS Negative score,[2]; [10],18.5 (4.5)*
same,PANSS Positive score,[2]; [10],19.9 (5.2)**
same,"PANSS general psychopathology subscale, oxytocin versus placebo",[2]; any time point,not significantly different
same,PANSS-total difference oxytocin versus placebo,[2]; baseline,0.60
same,"PANSS-total scores, oxytocin versus placebo","[2]; endpoint (week 3) visit, p<0.001",significantly lower
same,PANSS-total difference oxytocin versus placebo,"[2]; endpoint (week 3), p<0.001",5.46
same,PANSS-total difference oxytocin versus placebo,[2]; week 1,0.60
same,PANSS-total difference oxytocin versus placebo,[2]; week 2,1.20
same,"CGI-I, oxytocin versus placebo","[2]; week 3, P<0.001",significantly lower
same,"PANSS positive subscale scores, oxytocin versus placebo","[2]; week 3, P=0.006",significantly lower
same,"PANSS negative subscale scores, oxytocin versus placebo","[2]; week 3, p=0.023",significantly lower
same,"rates of reported adverse effects, oxytocin compared to placebo",[3]; 3 weeks each treatment,no significant differences
same,serious adverse events reported during the study,[3]; 3 weeks intranasal oxytocin twice daily,no serious adverse events
same,"Dizzy or lightheaded, subjects reporting",[3]; [11],26.7%
same,"Dyspepsia or nausea, subjects reporting",[3]; [11],26.7%
same,"Headache, subjects reporting",[3]; [11],26.7%
same,"Lethargy, subjects reporting",[3]; [11],0.0%
same,"Nasal Irritation, subjects reporting",[3]; [11],26.7%
same,"Sleep impairment, subjects reporting",[3]; [11],33.3%
same,tolerability,[3]; given twice daily for three weeks,well-tolerated
same,"scores on the LNS, oxytocin versus placebo",[4],no significant difference
same,"measured blood chemistry or urine osmolality, oxytocin versus placebo",[5]; at endpoint,no significant differences
same,BUN,"[5]; blood, at endpoint",10.8 mg/dL
same,Bicarb.,"[5]; blood, at endpoint",27.9 mmol/L
same,Calcium,"[5]; blood, at endpoint",9.3 mg/dL
same,Chloride,"[5]; blood, at endpoint",101.1 mmol/L
same,Creatinine,"[5]; blood, at endpoint",0.9 mg/dL
same,Potassium,"[5]; blood, at endpoint",4.4 mmol/L
same,Sodium,"[5]; blood, at endpoint",138.5 mmol/L
same,Glucose,"[5]; blood, at endpoint (week 3)",112.5 mg/dL
same,blood glucose levels compared to placebo,[5]; intranasal administration,reduction in blood glucose levels
same,Urine Osmolality,"[5]; urine, at endpoint",607.9 mOsm/kg
